From patent publication US10947252B2, “Inhibitors of KEAP1-Nrf2 protein-protein interaction” (Janssen Pharmaceutica NV, priority 2018, dated 2021)

Test system: Glo-Response ARE-luc2P HEK293 cell line
Test: ARE luciferase reporter cell-based assay;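 also: luciferase signal tracks Nrf2 activation of the ARE once compounds disrupt KEAP1-Nrf2 binding, read with One-Glo reagent, DMSO serving as low control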
Settings: 24 hours, average of results obtained

Compared with `Cc1ccc(C(c2ccn3c(C(F)(F)F)nnc3c2C)C(C)C(=O)O)cc1CN1C[C@@H]2CCCCN2c2ncccc2S1(=O)=O` (stereo in doubt) [Example 129, 3-(3-(((*S)-5,5-Dioxido-7,7a,8,9,10,11-hexahydro-6H-dipyrido[2,1-d:2′,3′-f][1,2,5]thiadiazepin-6-yl)methyl)-4-methylphenyl)-2-methyl-3-(8-methyl-3-(trifluoromethyl)-[1,2,4]triazolo[4,3-a]pyridine-7-yl)propanoic Acid], `Cc1cnc2c(c1)S(=O)(=O)N(Cc1cc([C@@H](c3ccn4c(C(F)(F)F)nnc4c3C)C(C)(C)C(=O)O)ccc1C)CC1(CCOCC1)O2` (single isomer, unassigned) [Example 407, (*S)-2,2-dimethyl-3-(4-methyl-3-((8′-methyl-1′,1′-dioxido-2,3,5,6-tetrahydrospiro[pyran-4,4′-pyrido[2,3-b][1,4,5]oxathiazepin]-2′(3′H)-yl)methyl)phenyl)-3-(8-methyl-3-(trifluoromethyl)-[1,2,4]triazolo[4,3-a]pyridin-7-yl)propanoic Acid] is 4.6-fold lower in EC50: 6.8 nM for the first, 1.47 nM for the second. The second is the more potent here.

Same assay, conditions: Homo sapiens, HEK293, 24 h, average of results obtained

Going from `Cc1ccc([C@H](c2ccn3c(C(F)(F)F)nnc3c2C)C(C)C(=O)O)nc1CN1C[C@@H]2CCCCN2c2ncc(F)cc2S1(=O)=O` (relative stereo) [Example 506, (3*S)-3-(6-(((S)-3-fluoro-5,5-dioxido-7,7a,8,9,10,11-hexahydro-6H-dipyrido[2,1-d:2′,3′-f][1,2,5]thiadiazepin-6-yl)methyl)-5-methylpyridin-2-yl)-2-methyl-3-(8-methyl-3-(trifluoromethyl)-[1,2,4]triazolo[4,3-a]pyridin-7-yl)propanoic Acid] to `Cc1ccc([C@@H](c2ccn3c(C(F)(F)F)nnc3c2C)C(C)C(=O)O)nc1CN1C[C@@H]2CCCCN2c2ncc(F)cc2S1(=O)=O` (relative stereo) [Example 507, (3*R)-3-(6-(((*S)-3-Fluoro-5,5-dioxido-7,7a,8,9,10,11-hexahydro-6H-dipyrido[2,1-d:2′,3′-f][1,2,5]thiadiazepin-6-yl)methyl)-5-methylpyridin-2-yl)-2-methyl-3-(8-methyl-3-(trifluoromethyl)-[1,2,4]triazolo[4,3-a]pyridin-7-yl)propanoic Acid], the EC50 falls from 7.83 nM to 0.73 nM (11-fold). The second is the more potent here.

First: Cc1cnc2c(c1)S(=O)(=O)N(Cc1cc(C(c3ccn4c(C(F)(F)F)nnc4c3C)C(C)(C)C(=O)O)ccc1C)CC1(CCOCC1)O2 (stereo not shown) [Example 17, 2,2-Dimethyl-3-(4-methyl-3-((8′-methyl-1′,1′-dioxido-2,3,5,6-tetrahydrospiro[pyran-4,4′-pyrido[2,3-b][1,4,5]oxathiazepin]-2′(3′H)-yl)methyl)phenyl)-3-(8-methyl-3-(trifluoromethyl)-[1,2,4]triazolo[4,3-a]pyridin-7-yl)propanoic Acid]
Second: Cc1cnc2c(c1)S(=O)(=O)N(Cc1cc(C(c3ccn4c(C(F)(F)F)nnc4c3)C(C)(C)C(=O)O)ccc1C)CC1(CC1)O2 (stereo not shown) [Example 322, 2,2-Dimethyl-3-(4-methyl-3-((8′-methyl-1′,1′-dioxidospiro[cyclopropane-1,4′-pyrido[2,3-b][1,4,5]oxathiazepin]-2′(3′H)-yl)methyl)phenyl)-3-(3-(trifluoromethyl)-[1,2,4]triazolo[4,3-a]pyridin-7-yl)propanoic Acid]
The EC50 of the first is 6.2-fold lower: 3.6 nM for the first, 22.4 nM for the second.

First: Cc1ccc([C@H](CC(=O)O)c2ccn3c(C(F)(F)F)nnc3c2C)cc1CN1C[C@@H]2CCCCN2c2nc(C#N)ccc2S1(=O)=O (relative stereo) [Example 202, (*S)-3-(3-(((*S)-2-Cyano-5,5-dioxido-7,7a,8,9,10,11-hexahydro-6H-dipyrido[2,1-d:2′,3′-f][1,2,5]thiadiazepin-6-yl)methyl)-4-methylphenyl)-3-(8-methyl-3-(trifluoromethyl)-[1,2,4]triazolo[4,3-a]pyridin-7-yl)propanoic Acid]
Second: Cc1ccc([C@@H](CC(=O)O)c2ccn3c(C(F)(F)F)nnc3c2C)cc1CN1C[C@H]2COCCN2c2ncccc2S1(=O)=O (single isomer, unassigned) [Example 263, (*R)-3-(3-(((*S)-5,5-Dioxido-7a,8,10,11-tetrahydro-[1,4]oxazino[3,4-d]pyrido[2,3-f][1,2,5]thiadiazepin-6(7H)-yl)methyl)-4-methylphenyl)-3-(8-methyl-3-(trifluoromethyl)-[1,2,4]triazolo[4,3-a]pyridin-7-yl)propanoic Acid]
The EC50 of the first is 89-fold lower: 13 nM for the first, 1160 nM for the second. The first is the more potent here.

Compared with `Cc1ccc([C@H](CC(=O)O)c2ccc3c(nnn3C3CC3)c2C)cc1CN1C[C@]2(C)CCCN2c2ncccc2S1(=O)=O` (relative stereo) [Example 219, (*S)-3-(1-Cyclopropyl-4-methyl-1H-benzo[d][1,2,3]triazol-5-yl)-3-(4-methyl-3-(((*S)-7a-methyl-5,5-dioxido-7a,8,9,10-tetrahydropyrido[2,3-f]pyrrolo[2,1-d][1,2,5]thiadiazepin-6(7H)-yl)methyl)phenyl)propanoic Acid], `Cc1ccc(C(CC(=O)O)c2ccc3c(nnn3C3CC3)c2C)cc1CN1CC2(CC2)N(C)c2ncccc2S1(=O)=O` (racemic) [Example 224, (R/S)-3-(1-Cyclopropyl-4-methyl-1H-benzo[d][1,2,3]triazol-5-yl)-3-(4-methyl-3-((5′-methyl-1′,1′-dioxido-5′H-spiro[cyclopropane-1,4′-pyrido[2,3-f][1,2,5]thiadiazepin]-2′(3′H)-yl)methyl)phenyl)propanoic Acid] is 4.4-fold higher in EC50: 4.5 nM for the first, 20 nM for the second. The first is the more potent here.

Compared with `Cc1ccc([C@H](c2ccc3c(nnn3CC3CC3)c2C)C(C)(C)C(=O)O)cc1CN1CC2(CCOCC2)Oc2ncccc2S1(=O)=O` (single isomer, unassigned) [Example 429, (R*)-3-(1-(cyclopropylmethyl)-4-methyl-1H-benzo[d][1,2,3]triazol-5-yl)-3-(3-((1′,1′-dioxido-2,3,5,6-tetrahydrospiro[pyran-4,4′-pyrido[2,3-b][1,4,5]oxathiazepin]-2′(3′H)-yl)methyl)-4-methylphenyl)-2,2-dimethylpropanoic Acid], `Cc1ccc(C(c2ccn3c(C(F)F)nnc3c2C)C(C)(C)C(=O)O)cc1CN1CC2(CC2)Oc2ncccc2S1(=O)=O` (racemic) [Example 566, (R/S)-3-(3-(Difluoromethyl)-8-methyl-[1,2,4]triazolo[4,3-a]pyridin-7-yl)-3-(3-((1′,1′-dioxidospiro[cyclopropane-1,4′-pyrido[2,3-b][1,4,5]oxathiazepin]-2′(3′H)-yl)methyl)-4-methylphenyl)-2,2-dimethylpropanoic Acid] is 2600-fold lower in EC50: 17800 nM for the first, 6.81 nM for the second. The second is the more potent here.

Compared with `Cc1ccc([C@H](CC(=O)O)c2ccn3c(C(F)(F)F)nnc3c2C)nc1CN1C[C@H]2CCCCN2c2ncc(Cl)cc2S1(=O)=O` (relative stereo) [Example 522, (*R)-3-(6-(((*R)-3-Chloro-5,5-dioxido-7,7a,8,9,10,11-hexahydro-6H-dipyrido[2,1-d:2′,3′-f][1,2,5]thiadiazepin-6-yl)methyl)-5-methylpyridin-2-yl)-3-(8-methyl-3-(trifluoromethyl)-[1,2,4]triazolo[4,3-a]pyridin-7-yl)propanoic Acid], `Cc1ccc([C@@H](c2ccn3c(C(F)(F)F)nnc3c2C)C(C)C(=O)O)cc1CN1C[C@@H]2CCCCN2c2ncccc2S1(=O)=O` (relative stereo) [Example 131, (3*S)-3-(3-(((*S)-5,5-Dioxido-7,7a,8,9,10,11-hexahydro-6H-dipyrido[2,1-d:2′,3′-f][1,2,5]thiadiazepin-6-yl)methyl)-4-methylphenyl)-2-methyl-3-(8-methyl-3-(trifluoromethyl)-[1,2,4]triazolo[4,3-a]pyridine-7-yl)propanoic Acid] is 3.2-fold lower in EC50: 5.06 nM for the first, 1.6 nM for the second. The second is the more potent here.

Going from `Cc1ncc([C@@H](c2ccn3c(C(F)(F)F)nnc3c2C)C(C)(C)C(=O)O)cc1CN1C[C@H]2CCCCN2c2ncc(C#N)cc2S1(=O)=O` (relative stereo) [Example 654, (*R)-3-(5-(((*R)-3-Cyano-5,5-dioxido-7,7a,8,9,10,11-hexahydro-6H-dipyrido[2,1-d:2′,3′-f][1,2,5]thiadiazepin-6-yl)methyl)-6-methylpyridin-3-yl)-2,2-dimethyl-3-(8-methyl-3-(trifluoromethyl)-[1,2,4]triazolo[4,3-a]pyridin-7-yl)propanoic Acid] to `Cc1ccc([C@@H](c2ccn3c(C(F)(F)F)nnc3c2C)C(C)(C)C(=O)O)cc1CN1CC2(CCOCC2)Oc2nc(OCCN3CCCCC3)ccc2S1(=O)=O` (single isomer, unassigned) [Example 127], the EC50 falls from 6880 nM to 11.8 nM (580-fold).

Going from `CCn1nnc2c(C)c([C@H](CC(=O)O)c3ccc(C)c(CN4C[C@@H]5CCCCN5c5ncccc5S4(=O)=O)c3)ccc21` (single isomer, unassigned) [Example 143, (*R)-3-(3-(((*S)-5,5-Dioxido-7,7a,8,9,10,11-hexahydro-6H-dipyrido[2,1-d:2′,3′-f][1,2,5]thiadiazepin-6-yl)methyl)-4-methylphenyl)-3-(1-ethyl-4-methyl-1H-benzo[d][1,2,3]triazol-5-yl)propanoic Acid] to `CCn1nnc2c(C)c(C(CC(=O)O)c3ccc(C)c(CN4C[C@H]5CCCCN5c5ncccc5S4(=O)=O)c3)ccc21` (mixture of isomers) [Example 144, (R/S)-3-(3-(((*R)-5,5-Dioxido-7,7a,8,9,10,11-hexahydro-6H-dipyrido[2,1-d:2′,3′-f][1,2,5]thiadiazepin-6-yl)methyl)-4-methylphenyl)-3-(1-ethyl-4-methyl-1H-benzo[d][1,2,3]triazol-5-yl)propanoic Acid], the EC50 falls from 45 nM to 3.1 nM (15-fold). The second is the more potent here.

In the case of `CCn1nnc2c(C)c(C(CC(=O)O)c3ccc(C)c(CN4C[C@@H]5COCCN5c5ncccc5S4(=O)=O)c3)ccc21` (mixture of isomers) [Example 138, (R/S)-3-(3-(((*R)-5,5-Dioxido-7a,8,10,11-tetrahydro-[1,4]oxazino[3,4-d]pyrido[2,3-f][1,2,5]thiadiazepin-6(7H)-yl)methyl)-4-methylphenyl)-3-(1-ethyl-4-methyl-1H-benzo[d][1,2,3]triazol-5-yl)propanoic Acid], the EC50 is reported as 14 nM.
